These results are taken from PMC7445967, “The Potential of Atractylodin-Loaded PLGA Nanoparticles as Chemotherapeutic for Cholangiocarcinoma” (Asian Pacific Journal of Cancer Prevention : APJCP, 2020).

Values after ≈ are worked out from the molar mass of the structure shown. Like-named read-outs stand apart in the source and are kept apart here.

By IC50 is commonly meant the concentration at which inhibition is half-maximal. Read a high IC50 as weaker potency.

Data set [1] has as its system CL-6 cholangiocarcinoma cell line. As to the kind of experiment: MTT cytotoxicity assay, CL-6. Conditions: for Cell viability: highest concentration (atractylodin 125 µg/mL, ALNPs-1 6,000 µg/mL), range. The method, then: (§1) Human cholangiocarcinoma (CCA) cell lines, CL-6 and HuCC-T1, and normal fibroblast cell line, OUMS-36T-1F, were used for cytotoxicity assay. CL-6 and HuCC-T1 cell lines were cultured in RPMI medium and OUMS-36T-1F cell line was cultured in DMEM medium. Both culture media were prepared as complete medium supplemented with 10% (v/v) FBS and 1% antibiotic-antimycotic solution (100 IU/mL). All cell cultures were maintained at 37°C under 5% CO2 atmosphere and 95% humidity ([…] 150i, Thermo scientific, MA, USA).
(§2) For cytotoxicity assay, the CCA and normal cell lines were exposed to various concentrations of ALNPs-1 (47-6,000 µg/mL, 100 µL each), blank NPs-1 (47-6,000 µg/mL, 100 µL each), atractylodin (1-125 µg/mL), 5-FU (positive control, 1-125 µg/mL), or serum-free medium (negative control) in a 96-well plate. Briefly, 8,000 cells (in 100 µL complete medium) were seeded into each well and pre-incubated at 37°C under 5% CO2 for 24 h. Viability of each cell following exposure to ALNPs-1, blank NPs-1, atractylodin, and 5-FU was determined by MTT assay at 24, 48, and 72 h of exposure (Chittasupho et al., 2017). Absorbance of cell suspension was measured at 550 nm using UV Absorbance Reader (Vario skan flash, Thermo Fisher scientific, MA, USA). Cell viability was calculated using the Equation (4):
(§3) Cell viability %=Absorbance of cell treated with sample/absorbance of negative control cells×100
(§4) IC50 (concentration that inhibits cell growth by 50%) of each compound in each cell line was determined using Graphpad Prism version 7.04 (GraphPad Software, CA, USA). Selectivity index (SI) was determined from the ratio of IC50 of ALNPs-1, atractylodin, or 5-FU in normal cell and CCA cell.

Data set [2] relates to HuCC-T1 cholangiocarcinoma cell line. As to the kind of experiment: MTT cytotoxicity assay, HuCC-T1. Conditions: for Cell viability: highest concentration (atractylodin 125 µg/mL, ALNPs-1 6,000 µg/mL), range. The method, then: as §1, §2, §3, §4
A general note: Tetrazolium dyes change colour on reduction, which living cells bring about.

Data set [3] concerns OUMS-36T-1F normal fibroblast cell line. Kind of data set: MTT cytotoxicity assay, OUMS-36T-1F. Conditions: for Cell viability: highest concentration (atractylodin 125 µg/mL, ALNPs-1 6,000 µg/mL), range. On the procedure: as §1, §2, §3, §4
The conditions of data set [4]: cited from earlier work.
Where [5] appears, read: ratio of IC50 in normal cell (OUMS-36T-1F) and CL-6, 24 hours.
The mark [6] stands for this setting: ratio of IC50 in normal cell (OUMS-36T-1F) and CL-6, 48 hours.
The mark [7] stands for this setting: ratio of IC50 in normal cell (OUMS-36T-1F) and CL-6, 72 hours.
Setting [8] is: ratio of IC50 in normal cell (OUMS-36T-1F) and HuCC-T1, 24 hours.
Where [9] appears, read: ratio of IC50 in normal cell (OUMS-36T-1F) and HuCC-T1, 48 hours.
[10] abbreviates: ratio of IC50 in normal cell (OUMS-36T-1F) and HuCC-T1, 72 hours.

In the case of `O=c1[nH]cc(F)c(=O)[nH]1` [5-FU, 5-fluorouracil], the IC50 in data set [1] (Homo sapiens, 24 h) was found to be 77.4 µg/mL (≈ 595 µM); in data set [1] (Homo sapiens, 48 h) it was 38.8 µg/mL (≈ 299 µM); in data set [1] (Homo sapiens, 72 h), 3.46 µg/mL (≈ 26.6 µM); in data set [2] (Homo sapiens, HuCCT-1, 24 h), 38.9 µg/mL (≈ 299 µM); in data set [2] (Homo sapiens, HuCCT-1, 48 h), 25.9 µg/mL (≈ 199 µM); in data set [2] (Homo sapiens, HuCCT-1, 72 h) it was 8.2 µg/mL (≈ 63 µM). In addition, the IC50 worked out at 133 µg/mL (≈ 1020 µM) in data set [3] (Homo sapiens, Fibroblast, 24 h); 49.8 µg/mL (≈ 383 µM) in data set [3] (Homo sapiens, Fibroblast, 48 h); 30.8 µg/mL (≈ 237 µM) in data set [3] (Homo sapiens, Fibroblast, 72 h). Also, the “Selectivity index (SI)” value in data set [1] (setting [5]) came out at 1.71; in data set [1] (setting [6]) it was 1.28; in data set [1] (setting [7]), 8.90; in data set [2] (setting [8]), 3.41; in data set [2] (setting [9]) it was 1.92; in data set [2] (setting [10]) it was 3.75.
For `C/C=C/C#CC#C/C=C/c1ccco1` [Atractylodin], the IC50 in data set [1] (CL-6, 24 h exposure, MTT) amounted to 56.36 µg/mL (≈ 309 µM); in data set [1] (CL-6, 48 h exposure, MTT), 37.66 µg/mL (≈ 207 µM); in data set [1] (CL-6, 72 h exposure, MTT), 52.02 µg/mL (≈ 285 µM); in data set [2] (HuCC-T1, 24 h exposure, MTT) it was 53.66 µg/mL (≈ 294 µM); in data set [2] (HuCC-T1, 48 h exposure, MTT), 59.74 µg/mL (≈ 328 µM); in data set [2] (HuCC-T1, 72 h exposure, MTT), 76.15 µg/mL (≈ 418 µM). The IC50 in data set [3] (OUMS-36T-1F, 24 h exposure, MTT) was 84.33 µg/mL (≈ 463 µM); in data set [3] (OUMS-36T-1F, 48 h exposure, MTT) it was 58.16 µg/mL (≈ 319 µM); in data set [3] (OUMS-36T-1F, 72 h exposure, MTT) it was 69.03 µg/mL (≈ 379 µM). Also, the Cell viability in data set [1] (CL-6, 24 hours) was 24.38-33.56%; in data set [1] (CL-6, 48 hours) it was 9.71-13.89%; in data set [1] (CL-6, 72 hours) it was 9.12-10.27%; in data set [2] (HuCC-T1, 24 hours) it was 23.72-30.39%; in data set [2] (HuCC-T1, 48 hours) it was 16.18-17.18%; in data set [2] (HuCC-T1, 72 hours), 16.43-20.57%. Also, the Cell viability in data set [3] (OUMS-36T-1F, 24 hours) is reported as 39.61-41.50%; in data set [3] (OUMS-36T-1F, 48 hours) it was 14.88-15.37%; in data set [3] (OUMS-36T-1F, 72 hours) it was 6.61-7.92%. The “Selectivity index (SI)” value in data set [1] (setting [5]) is recorded as 1.50; in data set [1] (setting [6]), 1.54; in data set [1] (setting [7]) it was 1.33; in data set [2] (setting [8]), 1.57; in data set [2] (setting [9]) it was 0.97; in data set [2] (setting [10]), 0.91. Further, in data set [3] (OUMS-36-1F normal cells), the “Concentrations producing cytotoxic effect against normal cells” value was in the range of 62.5 to 125 µg/mL. In addition, the Solubility in water is 7.541 µg/mL (≈ 41.4 µM) in data set [4] (free atractylodin, ref TGSC Information System, 2019) and “insoluble in water” in data set [4] (soluble in organic solvents such as ethyl acetate, DMSO, acetone, ref ChemFaces, 2018).
